Earlier results as cited in the CATMoS acute toxicity set (Mansouri et al. 2021).
Where “and” joins values, the source holds several entries; their conditions need not be identical. Equal values may be shown once.

test: rat acute oral toxicity; settings: in vivo
Source text: […]The data set underlying the modeling effort for this project was initially compiled by NICEATM and U.S. EPA’s CCTE. Briefly, LD50 data were collected from rat acute oral systemic toxicity tests, including limit tests, ranges/confidence intervals, and discrete LD50 values. The full data set included 21,200 LD50 entries for 15,688 substances. […] Data were reviewed to ensure that LD50 values with obvious errors in the extracted data such as unit conversion errors (e.g., comma and decimal separator misplacements) were either fixed or removed. After this review, 16,209 LD50 values remained. Many of the chemicals represented had multiple LD50 entries, requiring that a single representative value per Chemical Abstracts Service Registry Number (CASRN) identifier be defined to facilitate modeling efforts. Based on ATWG feedback and to define the representative LD50 as a protective value while accounting for the distribution across multiple LD50s, the median of the lowest quartile was computed using only discrete LD50 values (omitting limit test data and range and confidence interval data). A detailed summary of the data compilation is available online on the NICEATM webpage dedicated to the collaborative modeling project (NTP 2020).
[…][…] For categorical designations, limit test and range/confidence interval LD50 data were integrated wherever possible. As such, the number of chemicals with end point values/calls varies across the modeling end points (Table 3) based on whether chemicals had representative LD50 values and/or other data. If a chemical had both, the representative value was used to determine categorical calls rather than limit test data. Some data were useable only for certain end points and categories depending on the thresholds. For example, ranges that spanned multiple hazard categories were considered only for the binary (very toxic/nontoxic) end points and omitted from rendering a determination for hazard category assignment.
[…]The final data set comprising 11,992 chemicals was split into training and evaluation sets […], respectively. This process was performed semirandomly by ordering chemicals based on the five end points (categorical and continuous LD50 values) and partitioning every fourth record into the evaluation set accordingly. This approach was taken to ensure an equivalent distribution of the LD50 values and the different hazard categories between the training and the evaluation sets without supervised sampling of the chemicals based on structures (Figure 1A). The sources of the chemical structures were also kept equivalent between the two sets, with chemical structures obtained from DSSTox, being the highest quality, representing over 75% of each set (Figure 1B).

Structure (SMILES)	LD50
OC1(c2ccccc2)c2cc(F)ccc2C2=NCCN21 (stereo unspecified)	40 mg/kg
CC(C)NP(O)(=S)Oc1cc(Cl)c(Cl)cc1Cl (stereo unspecified)	31 mg/kg
CC(Cc1ccccc1)NC(C#N)c1ccccc1 (stereo unspecified)	37.6 mg/kg
C=C[Si](OCCOC)(OCCOC)OCCOC	2960 mg/kg
CCn1cc(C(=O)O)c(=O)c2cc(F)c(N3CCN(C)CC3)cc21	2500 mg/kg
CCCCCCCCCCCCCCCCCC(=O)OCCCC	32000 mg/kg
Oc1cc(Cl)c(Br)cc1Cl	1350 mg/kg
CCC(C)S (stereo unspecified)	5180 mg/kg
O=c1ccc2ccc3occc3c2o1	322 mg/kg
COc1ccc(CNCC(O)COc2ccc3[nH]c(=O)ccc3c2)cc1OC (stereo unspecified)	1500 mg/kg
O=c1nc(O)n(Cl)c(=O)n1Cl	1220 mg/kg
C=Cc1ccc(OC(C)=O)cc1	1500 mg/kg
CC(=O)OC[C@H]1O[C@@H](n2ncc(=O)[nH]c2=O)[C@H](OC(C)=O)[C@@H]1OC(C)=O	12000 mg/kg
Cc1cc(Cl)ccc1OCC(=O)OCCCCCC(C)C	700 mg/kg
COC(=O)C1=C(C)NC(C)=C(C(=O)OCC(C)(C)CN(C)Cc2ccccc2)C1c1cc([N+](=O)[O-])ccc1F (stereo unspecified)	30.5 mg/kg
CN1CCN(CCC(=O)NN=Cc2ccc([N+](=O)[O-])o2)CC1	300 mg/kg
O=[N+]([O-])c1ccc(OP(=O)(OCCCCl)OCCCCl)cc1	33 mg/kg
NC1CCCc2ccccc2C1 (stereo unspecified)	270 mg/kg
CCCCSC(C)C1(CC)C(=O)N=C(O)NC1=O (stereo unspecified)	582 mg/kg
CC12CCC(C(Br)C1=O)C2(C)C (stereo unspecified)	4450 mg/kg
Nc1c(Cl)cc(Cl)cc1C(=O)O	4120 mg/kg
CCOC(=O)c1ccc(N)cc1	3040 mg/kg

Structure (SMILES)	LD50
C=CCC1(C(C)CC)C(=O)NC(=O)NC1=O (stereo unspecified)	57.5 mg/kg
CC(C)(C)S	4730 mg/kg
C[Si](C)(C)CC(=O)O	3000 mg/kg
CC(C)NCC(O)c1ccc2ccccc2c1 (stereo unspecified)	900 mg/kg
O=C(OOC(=O)c1ccccc1)c1ccccc1	7710 mg/kg
NN1C(=O)CC(c2cccc(Br)c2)C1=O (stereo unspecified)	1600 mg/kg
C[N+]1(CCN(C2CCCCC2)C2CCCCC2)CCCCC1	650 mg/kg
NC(=O)c1cc2cc(CN3CCCCC3)ccc2o1	250 mg/kg
COC(=O)C=CC(=O)OC	2240 mg/kg
Cc1oc(C)c(C(=O)Nc2ccccc2)c1C	1470 mg/kg
CC(N)CSc1ccc(Cl)cc1 (stereo unspecified)	600 mg/kg
CC1(C)C2CC=C(CCO)C1C2 (stereo unspecified)	890 mg/kg
CC(C)Oc1ccccc1N	840 mg/kg
CN(C)C#N	146 mg/kg
Cc1ccc2c(-c3cccc(O)c3)nc(=O)n(C(C)C)c2c1	1600 mg/kg
Cc1ccnc(N)c1	200 mg/kg
CC(C(=O)O)c1ccc2c(c1)CC(=O)c1ccccc1S2 (stereo unspecified)	425 mg/kg
CCC(C)(C)OC(=O)Nc1ccco1	190 mg/kg
CC(C)COCCO	400 mg/kg
CN1CC[C@]23c4c5ccc(O)c4O[C@H]2[C@H](N=[N+]=[N-])CC[C@H]3[C@H]1C5	62 mg/kg
CCS(=O)(=O)CCn1c([N+](=O)[O-])cnc1C	2710 mg/kg
CC(C)[N+](C)(CCOC(=O)C1c2ccccc2Oc2ccccc21)C(C)C	370 mg/kg

Structure (SMILES)	LD50
CCCCCCc1ccccc1O	1300 mg/kg
O=C1c2ccccc2C(=O)C1c1ccccc1	163 mg/kg
CC(C(=O)O)c1ccc2c(c1)OCc1ccccc1C2=O (stereo unspecified)	34 mg/kg
CN(Cc1cc(Br)cc(Br)c1N)C1CCCCC1	6000 mg/kg
CS/C(C)=N/OC(=O)N(C)SN(C)C(=O)O/N=C(\C)SC	66 mg/kg
CC1Cc2cc3c(cc2C(c2ccc(N)cc2)=NN1)OCO3 (stereo unspecified)	350 mg/kg
C#CC(C)OC(=O)Nc1cccc(Cl)c1 (stereo unspecified)	2380 mg/kg
Clc1ccc(C(OCCN2CCCCC2)c2ccccc2)cc1 (stereo unspecified)	1990 mg/kg
CC(C)(c1cc(Cl)c(O)c(Cl)c1)c1cc(Cl)c(O)c(Cl)c1	7430 mg/kg
CC(C)C(CCN(C)C)(C(N)=O)c1cccc2ccccc12 (stereo unspecified)	1030 mg/kg
CCOP(=O)(OC=C(Cl)Cl)OCC	2.5 mg/kg
CCOC(=O)Cc1cccc2ccccc12	3580 mg/kg
CN(C)CCNC(=O)C(C)(C)Oc1ccc(Cl)cc1	130 mg/kg
C=CC(=O)NCC(OC)OC	1200 mg/kg
CCN(CC)P1(=S)OCc2cc([N+](=O)[O-])ccc2O1 (stereo unspecified)	150 mg/kg
CC(C)OC(=S)S	1700 mg/kg and 1250 mg/kg
CCC1OCSC1=NOC(=O)NC (stereo unspecified)	24 mg/kg
Cc1ccc2c(c1)c1c3n2CCNC3CCC1 (stereo unspecified)	2060 mg/kg
COc1ccc(C=CC(=O)O)cc1O	7900 mg/kg
CCOc1cc2c3c([nH]c2cc1N)CCCC3	810 mg/kg
CCCCC(CC)CCC(CC(C)C)OS(=O)(=O)O (stereo unspecified)	1250 mg/kg
Oc1cccc(Cl)c1-c1ccccc1	3500 mg/kg
